Reference: PMC10023787, “Trio-pharmacophore DNA-encoded chemical library for simultaneous selection of fragments and linkers” (Nature Communications, 2023)
Entries after “also recorded” stand apart in the source; their conditions may differ. Where two headings read alike, the source gives them in different places.

Experiments:
[1] = molecular target: T1, MMP-9 (Homo sapiens, UniProt P14780); experiment: MMP-9 inhibition assay (fluorogenic peptide substrate); assay type: biochemical
T1 construct: purchased Sino Biological 10327-HNAH
T1 sequence (P14780 107-707 limits assumed): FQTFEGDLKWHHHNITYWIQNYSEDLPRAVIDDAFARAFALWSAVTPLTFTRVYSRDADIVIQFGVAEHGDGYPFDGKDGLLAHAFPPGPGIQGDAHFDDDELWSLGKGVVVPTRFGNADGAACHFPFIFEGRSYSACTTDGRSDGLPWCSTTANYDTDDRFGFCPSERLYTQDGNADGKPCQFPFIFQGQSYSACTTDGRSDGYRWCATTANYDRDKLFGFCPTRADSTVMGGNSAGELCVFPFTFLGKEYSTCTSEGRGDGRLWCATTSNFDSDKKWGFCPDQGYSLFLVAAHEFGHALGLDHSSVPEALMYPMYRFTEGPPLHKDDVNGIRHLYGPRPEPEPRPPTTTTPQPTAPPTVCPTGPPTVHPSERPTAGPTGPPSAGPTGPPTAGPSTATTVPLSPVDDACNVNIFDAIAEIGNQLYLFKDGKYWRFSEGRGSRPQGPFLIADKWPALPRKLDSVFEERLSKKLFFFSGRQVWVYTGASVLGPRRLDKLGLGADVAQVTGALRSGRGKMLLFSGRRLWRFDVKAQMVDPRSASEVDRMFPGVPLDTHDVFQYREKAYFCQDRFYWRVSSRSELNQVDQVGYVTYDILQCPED
How it was run: (§1)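 Hydrolysis of DNP-Pro-Leu-Gly-Met-Trp-Ser-Arg (25 μM final) was tracked kinetically at em 360 nm over 30 min. Enzymes, APMA-activated and at 10 nM (MMP-9) or 6.5 nM (MMP-2) final, sat 30 min at RT with inhibitor in pH 7.5 Tris buffer with CaCl2 and Brij 35 first. Logistic fitting of Vmax against concentration gave IC50, in triplicate.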

[2] = molecular target: T2, MMP-2 (Homo sapiens, UniProt P08253); experiment: MMP-2 inhibition assay (fluorogenic peptide substrate); assay type: biochemical
T2 construct: purchased Sino Biological 10082-HNAH
T2 sequence (P08253 110-660): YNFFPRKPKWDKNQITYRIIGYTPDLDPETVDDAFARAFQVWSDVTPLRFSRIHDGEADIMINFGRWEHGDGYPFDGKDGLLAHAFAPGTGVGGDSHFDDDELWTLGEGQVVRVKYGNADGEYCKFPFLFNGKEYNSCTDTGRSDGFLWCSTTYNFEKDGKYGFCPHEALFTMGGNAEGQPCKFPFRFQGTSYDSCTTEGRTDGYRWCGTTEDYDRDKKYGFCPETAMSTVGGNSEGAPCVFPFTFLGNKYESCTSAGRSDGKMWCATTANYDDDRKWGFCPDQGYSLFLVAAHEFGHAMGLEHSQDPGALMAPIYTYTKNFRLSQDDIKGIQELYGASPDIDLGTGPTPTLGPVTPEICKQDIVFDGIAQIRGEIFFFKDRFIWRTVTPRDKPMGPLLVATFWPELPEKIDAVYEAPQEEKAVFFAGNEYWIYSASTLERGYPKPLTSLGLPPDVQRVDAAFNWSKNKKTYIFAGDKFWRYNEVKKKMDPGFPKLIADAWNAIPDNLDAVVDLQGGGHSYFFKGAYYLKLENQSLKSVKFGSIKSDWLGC
How it was run: as §1

- remaining activity at 0.12207 µM ([1]; Figure 5b, fragment concentration 0.12207 µM, read-out: Normalized activity (Mean)): 95.1%
- remaining activity at 0.488281 µM ([1]; Figure 5b, fragment concentration 0.488281 µM, read-out: Normalized activity (Mean)): 93.3%
- remaining activity at 1.95312 µM ([1]; Figure 5b, fragment concentration 1.95312 µM, read-out: Normalized activity (Mean)): 97.2%
- remaining activity at 7.8125 µM ([1]; Figure 5b, fragment concentration 7.8125 µM, read-out: Normalized activity (Mean)): 99.6%
- remaining activity at 31.25 µM ([1]; Figure 5b, fragment concentration 31.25 µM, read-out: Normalized activity (Mean)): 92%
- remaining activity at 125 µM ([1]; Figure 5b, fragment concentration 125 µM, read-out: Normalized activity (Mean)): 94.2%
- remaining activity at 500 µM ([1]; Figure 5b, fragment concentration 500 µM, read-out: Normalized activity (Mean)): 83%
- remaining activity at 0.12 µM ([1]; MMP-9, concentration 0.12 µM, read-out: Mean (MMP-9, Supplementary fig 16)): 95.1%
- remaining activity at 0.49 µM ([1]; MMP-9, concentration 0.49 µM, read-out: Mean (MMP-9, Supplementary fig 16)): 93.3%
- remaining activity at 1.95 µM ([1]; MMP-9, concentration 1.95 µM, read-out: Mean (MMP-9, Supplementary fig 16)): 97.2%
- remaining activity at 7.81 µM ([1]; MMP-9, concentration 7.81 µM, read-out: Mean (MMP-9, Supplementary fig 16)): 99.6%
- remaining activity at 31.25 µM ([1]; MMP-9, concentration 31.25 µM, read-out: Mean (MMP-9, Supplementary fig 16)): 92%
- remaining activity at 125 µM ([1]; MMP-9, concentration 125.00 µM, read-out: Mean (MMP-9, Supplementary fig 16)): 94.2%
- remaining activity at 500 µM ([1]; MMP-9, concentration 500.00 µM, read-out: Mean (MMP-9, Supplementary fig 16)): 83%
- remaining activity at 0.12 µM ([1]; MMP-9, concentration 0.12 µM, read-out: Mean (MMP-9 dose-response, Supplementary fig 15)): 95.1%
- remaining activity at 0.12 µM ([1]; MMP-9, concentration 0.12 µM, read-out: Mean (dose-response, Supplementary fig 17)): 82.6%
- remaining activity at 0.49 µM ([1]; MMP-9, concentration 0.49 µM, read-out: Mean (MMP-9 dose-response, Supplementary fig 15)): 93.3%
- remaining activity at 0.49 µM ([1]; MMP-9, concentration 0.49 µM, read-out: Mean (dose-response, Supplementary fig 17)): 80.6%
- remaining activity at 1.95 µM ([1]; MMP-9, concentration 1.95 µM, read-out: Mean (MMP-9 dose-response, Supplementary fig 15)): 97.2%
- remaining activity at 1.95 µM ([1]; MMP-9, concentration 1.95 µM, read-out: Mean (dose-response, Supplementary fig 17)): 99.3%
- remaining activity at 7.81 µM ([1]; MMP-9, concentration 7.81 µM, read-out: Mean (MMP-9 dose-response, Supplementary fig 15)): 99.6%
- remaining activity at 7.81 µM ([1]; MMP-9, concentration 7.81 µM, read-out: Mean (dose-response, Supplementary fig 17)): 88.5%
- remaining activity at 31.25 µM ([1]; MMP-9, concentration 31.25 µM, read-out: Mean (MMP-9 dose-response, Supplementary fig 15)): 92%
- remaining activity at 31.25 µM ([1]; MMP-9, concentration 31.25 µM, read-out: Mean (dose-response, Supplementary fig 17)): 96.1%
- remaining activity at 125 µM ([1]; MMP-9, concentration 125.00 µM, read-out: Mean (MMP-9 dose-response, Supplementary fig 15)): 94.2%
- remaining activity at 125 µM ([1]; MMP-9, concentration 125.00 µM, read-out: Mean (dose-response, Supplementary fig 17)): 87.7%
- remaining activity at 500 µM ([1]; MMP-9, concentration 500.00 µM, read-out: Mean (MMP-9 dose-response, Supplementary fig 15)): 83%
- remaining activity at 500 µM ([1]; MMP-9, concentration 500.00 µM, read-out: Mean (dose-response, Supplementary fig 17)): 84%
- remaining activity at 0.0305176 µM ([2]; Figure 5a, fragment concentration 0.0305176 µM, read-out: Normalized activity (Mean)): 105%
- remaining activity at 0.12207 µM ([2]; Figure 5a, fragment concentration 0.12207 µM, read-out: Normalized activity (Mean)): 112%
- remaining activity at 0.488281 µM ([2]; Figure 5a, fragment concentration 0.488281 µM, read-out: Normalized activity (Mean)): 97.4%
- remaining activity at 1.95312 µM ([2]; Figure 5a, fragment concentration 1.95312 µM, read-out: Normalized activity (Mean)): 96.2%
- remaining activity at 7.8125 µM ([2]; Figure 5a, fragment concentration 7.8125 µM, read-out: Normalized activity (Mean)): 103%
- remaining activity at 31.25 µM ([2]; Figure 5a, fragment concentration 31.25 µM, read-out: Normalized activity (Mean)): 92.9%
- remaining activity at 125 µM ([2]; Figure 5a, fragment concentration 125 µM, read-out: Normalized activity (Mean)): 97.7%
- remaining activity at 500 µM ([2]; Figure 5a, fragment concentration 500 µM, read-out: Normalized activity (Mean)): 89.5%
- remaining activity at 0.12 µM ([2]; MMP-2, concentration 0.12 µM, read-out: Mean (MMP-2, Supplementary fig 16)): 112%
- remaining activity at 0.49 µM ([2]; MMP-2, concentration 0.49 µM, read-out: Mean (MMP-2, Supplementary fig 16)): 97.4%
- remaining activity at 1.95 µM ([2]; MMP-2, concentration 1.95 µM, read-out: Mean (MMP-2, Supplementary fig 16)): 96.2%
- remaining activity at 7.81 µM ([2]; MMP-2, concentration 7.81 µM, read-out: Mean (MMP-2, Supplementary fig 16)): 103%
- remaining activity at 31.25 µM ([2]; MMP-2, concentration 31.25 µM, read-out: Mean (MMP-2, Supplementary fig 16)): 92.9%
- remaining activity at 125 µM ([2]; MMP-2, concentration 125.00 µM, read-out: Mean (MMP-2, Supplementary fig 16)): 97.7%
- remaining activity at 500 µM ([2]; MMP-2, concentration 500.00 µM, read-out: Mean (MMP-2, Supplementary fig 16)): 89.5%
- remaining activity at 0.12 µM ([2]; MMP-2, concentration 0.12 µM, read-out: Mean (MMP-2 dose-response, Supplementary fig 15)): 112%
- remaining activity at 0.12 µM ([2]; MMP-2, concentration 0.12 µM, read-out: Mean (dose-response, Supplementary fig 17)): 112%
- remaining activity at 0.49 µM ([2]; MMP-2, concentration 0.49 µM, read-out: Mean (MMP-2 dose-response, Supplementary fig 15)): 97.4%
- remaining activity at 0.49 µM ([2]; MMP-2, concentration 0.49 µM, read-out: Mean (dose-response, Supplementary fig 17)): 97.4%
- remaining activity at 1.95 µM ([2]; MMP-2, concentration 1.95 µM, read-out: Mean (MMP-2 dose-response, Supplementary fig 15)): 96.2%
- remaining activity at 1.95 µM ([2]; MMP-2, concentration 1.95 µM, read-out: Mean (dose-response, Supplementary fig 17)): 96.2%
- remaining activity at 7.81 µM ([2]; MMP-2, concentration 7.81 µM, read-out: Mean (MMP-2 dose-response, Supplementary fig 15)): 103%
- remaining activity at 7.81 µM ([2]; MMP-2, concentration 7.81 µM, read-out: Mean (dose-response, Supplementary fig 17)): 103%
- remaining activity at 31.25 µM ([2]; MMP-2, concentration 31.25 µM, read-out: Mean (MMP-2 dose-response, Supplementary fig 15)): 92.9%
- remaining activity at 31.25 µM ([2]; MMP-2, concentration 31.25 µM, read-out: Mean (dose-response, Supplementary fig 17)): 92.9%
- remaining activity at 125 µM ([2]; MMP-2, concentration 125.00 µM, read-out: Mean (MMP-2 dose-response, Supplementary fig 15)): 97.7%
- remaining activity at 125 µM ([2]; MMP-2, concentration 125.00 µM, read-out: Mean (dose-response, Supplementary fig 17)): 97.7%
- remaining activity at 500 µM ([2]; MMP-2, concentration 500.00 µM, read-out: Mean (MMP-2 dose-response, Supplementary fig 15)): 89.5%
- remaining activity at 500 µM ([2]; MMP-2, concentration 500.00 µM, read-out: Mean (dose-response, Supplementary fig 17)): 89.5%
Compound: Cn1c(O)nc2cc(C(=O)O)cnc21 [Compound 826]
- inhibitory effect ([1]; in words): No inhibitory effects could be measured; also recorded: did not exhibit meaningful activity
- inhibitory effect ([2]; in words): No inhibitory effects could be measured; also recorded: did not exhibit meaningful activity
